Values after ≈ are worked out from the molar mass of the structure shown.
Key:
[1] = test system: S. aureus; assay: Determination of MIC; format: cell-based, Staphylococcus aureus; details: S. aureus; for Inhibitory concentration: lowest concentration at which the inhibitory effect was detectable
Method: (§1) Minimal inhibitory concentrations (MICs) of purified compounds and commercially available standards were assessed against S. aureus, C. albicans, P. aeruginosa, K. pneumoniae, E. coli, ESBL K. pneumoniae, ESBL E. coli and the two MRSA strains (B337919 and B335466). Stock solutions of 5 × 10^6 μg/l of p-hydroxybenzaldehyde, and phenyllactic acid were prepared using water. Stock solutions of 1 × 10^8 μg/l indole-3-carboxylic acid, PAA and indole-3-acetic acid were prepared using methanol and diluted with water (working solution of 5 × 10^6 μg/l). Stocks of 1 × 10^6 μg/l of cFP and cPM were dissolved in water. […] Methanol and water were used as control.

[2] = test system: MRSA Staphylococcus (S.) aureus B335466; assay: Determination of MIC; format: cell-based; details: MRSA 335; for Inhibitory concentration: lowest concentration at which the inhibitory effect was detectable
Method: as §1

[3] = test system: MRSA Staphylococcus (S.) aureus B337919; assay: Determination of MIC; format: cell-based; details: MRSA 337; for Inhibitory concentration: lowest concentration at which the inhibitory effect was detectable
Method: as §1

[4] = test system: P. aeruginosa; assay: Determination of MIC; format: cell-based, Pseudomonas aeruginosa; details: for Inhibitory concentration: lowest concentration at which the inhibitory effect was detectable
Method: as §1

[5] = test system: C. albicans; assay: Determination of MIC; format: cell-based, Candida albicans; details: C. albicans; for Inhibitory concentration: lowest concentration at which the inhibitory effect was detectable
Method: as §1

[6] = test system: E. coli; assay: Determination of MIC; format: cell-based, Escherichia coli; details: E. coli; for Inhibitory concentration: lowest concentration at which the inhibitory effect was detectable
Method: as §1

[7] = test system: ESBL E. coli; assay: Determination of MIC; format: cell-based, Escherichia coli; details: ESBL E. coli; for Inhibitory concentration: lowest concentration at which the inhibitory effect was detectable
Method: as §1

[8] = test system: ESBL K. pneumoniae; assay: Determination of MIC; format: cell-based, Klebsiella pneumoniae; details: ESBL K. pneumoniae; for Inhibitory concentration: lowest concentration at which the inhibitory effect was detectable
Method: as §1

[9] = test system: K. pneumoniae; assay: Determination of MIC; format: cell-based, Klebsiella pneumoniae; details: K. pneumoniae; for Inhibitory concentration: lowest concentration at which the inhibitory effect was detectable
Method: as §1

[10] = test system: human hepatocytic (HepG2) cells; assay: Cytotoxicity assay, lactate dehydrogenase release; format: cell-based; details: compound 2mg/ml, 24 h, LDH
Method: (§2) Cytotoxicity of the fungal extract and the identified compounds was determined measuring lactate dehydrogenase release using human intestinal epithelial (Caco2) and human hepatocytic (HepG2) cells. […] Cells were seeded into 96-well plates (5 × 10^4 cells per well) and incubated until a confluent cell layer had developed. After discarding of the media cells were incubated with 50 μl of media and 50 μl of fungal extract or compound (final concentration: PAA 2 × 10^6 μg/l, 4FP 2 × 10^6 μg/l, ICA 2 × 10^6 μg/l, IAA 2 × 10^5 μg/l, PLA 2 × 10^6 μg/l, cPM 2 × 10^6μg/l and cFP 2 × 10^6 μg/l) for 24 h at 37°C. […] LDH release was measured according to the manufacturer’s protocol (Sigma–Aldrich, USA).

[11] = test system: human intestinal epithelial (Caco2) cells; assay: Cytotoxicity assay, lactate dehydrogenase release; format: cell-based; details: for % of living Caco2 cells: compound 2mg/ml, 24 h, LDH
Method: as §2

[12] = test system: Caco2 cells; assay: XTT assay, metabolic active cells; format: cell-based, human; details: for % of metabolic active Caco2 cells: compound 2mg/ml, XTT
Method: (§3) In parallel the % of metabolic cells was measured using the XTT [2,3-Bis-(2-methoxy-4-nitro-5-sulfophenyl)-2H-tetra zolium-5-carboxanilide] assay (Thermo Scientific). Briefly, after treatment with the fungal extract or the different compounds cells were incubated with XTT and phenanzine methosulfate (Thermo Scientific) for 2 h. Absorbance was measured at 450 nm and % of metabolic active cells was calculated versus the control sample (media). As controls we incubated the cells without fungal cultures or compound, and with VPA alone.

[13] = test system: HepG2 cells; assay: XTT assay, metabolic active cells; format: cell-based, human; details: compound 2mg/ml
Method: as §3

[14] = test system: Caco2 and HepG2 cells; format: cell-based; details: at the determined MIC concentrations; range over compounds and cell lines
Method: as §2

[15] = test system: higher fungi; set-up: method as in Strom et al., 2002; details: ref Strom et al., 2002; cited from earlier work
[16] = test system: Bacillus subtilis, S. aureus and Micrococcus luteus; set-up: method as in Jayatilake et al., 1996; Thomas et al., 2010; details: ref Jayatilake et al., 1996; Thomas et al., 2010; cited from earlier work
[17] = test system: all tested organisms; assay: Determination of MIC, statements over all tested organisms; format: cell-based; details: against the tested microorganisms
Method: as §1

[18] = set-up: method as in Rodloff et al., 2008; details: ref Rodloff et al., 2008; cited from earlier work
[19] = test system: MRSA strain B335466; assay: Ampicillin MIC alone and in combination; format: cell-based; details: Staphylococcus aureus
Method: (§4) Furthermore we studied the ability of PAA, cPM and cFP to increase antimicrobial activity of ampicillin against both ESBL and MRSA strains. The combination of cPM (100 mg/l) with ampicillin decreased the MIC value from 100 to 10 mg/l against the MRSA strain B335466 (Figure 5C).

[20] = test system: MRSA strain B337919; assay: Ampicillin MIC alone and in combination; format: cell-based; details: Staphylococcus aureus
Method: as §4

[21] = test system: ESBL E. coli strain; assay: Ampicillin in combination; format: cell-based, Escherichia coli; details: ampicillin combined with PAA, cPM or cFP
Method: as §4

[22] = test system: ESBL K. pneumoniae strain; assay: Ampicillin in combination; format: cell-based, Klebsiella pneumoniae; details: ampicillin combined with PAA, cPM or cFP
Method: as §4

[23] = test system: acetylation of histone H3 K9 and K14; assay: Histone posttranslational modifications by Western blot; format: cell-based, Doratomyces microsporus; details: VPA-treated D. microsporus cultures, 24, 48, 72 h
Method: Mycelia from the D. microsporus cultures were harvested after 24, 48, and 72 h by filtration and frozen in liquid nitrogen. Histones were extracted under acidic conditions as described by [Honda and Selker (2008)]. Samples were suspended in Laemmli’s SDS sample buffer and quantified with Pierce BCA Protein Assay (Thermo Scientific). Fifteen microgram of purified histones were separated on 15% SDS-PAGE gel and subsequently transferred to nitrocellulose membrane (GE Healthcare) by electroblotting. Histone H3 acetylation (H3Ac) was detected with primary antibody specific to H3Ac (Millipore, 06-599). As a loading control histone H3 C-terminus was detected with anti H3 C-terminus antibody (Abcam, 1791). The primary antibodies were identified with anti- rabbit (Sigma–Aldrich, A0545) horseradish peroxidase (HRP) conjugated secondary antibody. Chemiluminescence was detected with Clarity^TM ECL Western Substrate and ChemiDoc^TM XRS (Bio- Rad).

[24] = Escherichia coli, read-out: MIC
[25] = Klebsiella pneumoniae, read-out: MIC

Row | SMILES | Inhibitory concentration [1] [g/L] | Inhibitory concentration [2] [g/L] | Inhibitory concentration [3] [g/L] | Inhibitory concentration [4] [g/L] | Inhibitory concentration [5] [g/L] | Inhibitory concentration [6] [g/L] | Inhibitory concentration [7] [g/L] | Inhibitory concentration [8] [g/L] | Inhibitory concentration [9] [g/L] | % of living HepG2 cells [10] [%] | % of living Caco2 cells [11] [%] | % of metabolic active Caco2 cells [12] [%] | % of metabolic active HepG2 cells [13] [%] | dead cells [14] | antimicrobial activity [16] | other results
1 | O=C1NC(Cc2ccccc2)C(=O)N2CCCC12 [cFP, cyclo-(L-phenylalanine-L-proline)] | 2 | 2 | 2 | 5 | 2.5 | 5 | 5 | 3 | 3 | 5.11 | 4.28 | 106.66 | 116.63 | 3.99–8.61% | no antimicrobial activity | MIC [15]: 20000 µg/mL (≈ 81.9 mM)
2 | CSCCC1NC(=O)C2CCCN2C1=O [cPM, cyclo-(L-proline-L-methionine)] | 2.5 | 2.5 | 2.5 | 5 | 5 | 5 | 5 | 5 | 5 | 3.99 | 4.77 | 99.18 | 107.47 | 3.99–8.61% | no antimicrobial activity | growth inhibitory activity [17]: 2 g/L
3 | C[C@H]1COc2c(N3CCN(C)CC3)c(F)cc3c(=O)c(C(=O)O)cn1c23 [levofloxacin] | – | – | – | – | – | – | – | – | – | – | – | – | – | – | – | accepted MIC values for antibiotics in clinical use [18]: 0.003 µg/mL
4 | CC1(C)S[C@@H]2[C@H](NC(=O)[C@H](N)c3ccccc3)C(=O)N2[C@H]1C(=O)O [ampicillin] | – | – | – | – | – | – | – | – | – | – | – | – | – | – | – | MIC ([19]; ampicillin alone): 100 µg/mL; MIC ([19]; combined with PAA (1 g/l)): 50 µg/mL; MIC ([19]; combined with cPM (100 mg/l)): 10 µg/mL; MIC ([20]; ampicillin alone): 100 µg/mL; MIC ([20]; combined with cPM (2 g/l)): 50 µg/mL; synergistic or additive effect [21]: No synergistic or additive effect; synergistic or additive effect [22]: No synergistic or additive effect
5 | O=Cc1ccc(O)cc1 [4FP, p-hydroxybenzaldehyde] | – | – | – | – | – | – | – | – | – | 7.86 | 25.94 | 32.06 | 57.33 | – | – | MIC ([1]; Staphylococcus aureus, read-out: MIC): 2000 µg/mL (≈ 16.4 mM); MIC ([2]; read-out: MIC): 2500 µg/mL (≈ 20.5 mM); MIC ([3]; read-out: MIC): 2500 µg/mL (≈ 20.5 mM); MIC ([4]; Pseudomonas aeruginosa): 2500 µg/mL (≈ 20.5 mM); MIC ([5]; Candida albicans, read-out: MIC): 1000 µg/mL (≈ 8.19 mM); MIC [6, 24]: 2500 µg/mL (≈ 20.5 mM); MIC [7, 24]: 2500 µg/mL (≈ 20.5 mM); MIC [8, 25]: 2500 µg/mL (≈ 20.5 mM); MIC [9, 25]: 2500 µg/mL (≈ 20.5 mM); dead cells ([11]; at the determined MIC concentrations, Caco2): 25.9%; metabolic active cells ([12]; human): 57.3%
6 | CCCC(CCC)C(=O)O [VPA, valproic acid] | – | – | – | – | – | – | – | – | – | – | – | – | – | – | – | acetylation of the N-terminal lysines of histone 3 compared to the untreated control culture [23]: could not detect any significant increase in acetylation

Source: article PMC4829596 (Frontiers in Microbiology, 2016)
